Assay results as given in patent US5109024A, “Polyamine derivatives as antineoplastic agents” (Merrell Dow Pharmaceuticals Inc., priority 1991, dated 1992).
Structures can show the parent of a compound that is named as a salt. Where two headings read alike, the source gives them in different places.

Columns and labels:
L1210 leukemia [1] = test: animal or person; assay type: in vivo, mice (BDFl male); details: Mus musculus, L1210, ip, 10 mg/Kg/day, read-out: % T/C (mean survival time treated/mean survival time control ×100)
Procedure: The following study of the antitumor activity of the compounds of formula (I) against L1210 leukemia illustrates this aspect of the present invention.
Groups of 6 mice (BDFl male) were inoculated i.p. with 10^5 L1210 leukemia cells on day 0. Test compounds or vehicle (Control group) were administered at the indicated doses starting on day 1 and continuing through day 5 or 9. Relative survival time was determined and expressed as % T/C (mean survival time treated/mean survival time control ×100). Presence or absence of delayed toxicity was determined by an examination o the animal's external appearance and behavior during the study. For example, an emaciated condition is a key indication of delayed toxicity in these studies.

L1210 leukemia [2] = test: Curative Effect Against Advanced L1210 Leukemia (survival, cures); assay type: in vivo, mice (BDFl male); details: for Cured (mice surviving beyond day 45) / Survival in days (Mean ± S.E.): n=5
Procedure: In an additional study, groups of 5 mice (BDFl male) were inoculated i.p. with 10^5 L1210 leukemia cells on day 0. N,N'-bis[3-(ethylamino)propyl]-1,7-diaminoheptane or vehicle (Control group) were administered at the indicated doses and on the indicated days. […] In a similar study, N,N'-bis[3-(amino)propyl]-1,8-diaminooctane, administered at a dose of […] on days 3 through 7, provided a %T/C of 350 but no cures in 6 animals [Edwards et al., J. Med. Chem. 33, 1369 (1990), See Table II infra].

[3] = test system: MCA-38 colon adenocarcinoma cells; test: Experimental Murine Liver Metastasis (MCA-38 colon adenocarcinoma cells injected intrasplenically); assay type: in vivo, C57BL/6 mice; details: i.p., day 14; for Liver Metastasis No. foci ± S.E.: n = 6, p < 0.001, control 220.6 ± 22.2
Procedure: C57BL/6 mice were injected intrasplenically on day 0 with MCA-38 colon adenocarcinoma cells (1×10^5) so as to induce hepatic metastasis. Liver metastatic foci were determined as described by Bowlin et al. [Cancer Res. 50, 5460 (1990)]. Briefly, injected animals were randomly allocated to one of three treatment groups, 6 animals per group, and test compound or vehicle (Control) was administered i.p. at the doses and times indicated in Table 3. Liver metastatic foci were determined on day 14.

[4] = test system: 3LL (Lewis lung) carcinoma cells; test: Experimental Murine Lung Metastasis (3LL Lewis lung carcinoma cells injected into footpad); assay type: in vivo, C57BL/6 mice
Procedure: C57BL/6 mice were injected into the footpad on day 0 with 3LL (Lewis lung) carcinoma cells (1×10^6) so as to induce lung metastasis. Lung metastatic foci were determined as described by Sunkara et al. [J.Biological Response Modifiers 8, 170 (1989)]. Briefly, injected animals were randomly allocated to one of two treatment groups, 6 animals per group, and test compound or vehicle (Control) was administered i.p. at the doses and times indicated in Table 4. Lung metastatic foci were determined on day 18.

L1210 leukemia [5] = details: 6.25 mg/Kg × 4 doses per day, days 3 thru 7, n=6, Edwards et al., cited from earlier work
[6] = 5 mg/Kg × 4 doses per day, days 3, 4, 5
[7] = 5 mg/Kg × 4 doses per day, days 3, 4
[8] = 10 mg/Kg × 4 doses per day, days 3, 4

Compound: CNCCCNCCCCCCCNCCCNC [Compound 28249, N,N'-bis[3-(methylamino)propyl]-1,7-diaminoheptane]
- response vs control in vivo at 10 mg/kg (L1210 leukemia [1]; days 1-5): 110%

Compound: CCNCCCNCCCCCCCNCCCNCC [Compound 28314, N,N'-Bis[3-(ethylamino)propyl]-1,7-heptanediamine]
- response vs control in vivo at 10 mg/kg (L1210 leukemia [1]; days 1-5): 200%
- Cured (mice surviving beyond day 45) (L1210 leukemia [2]; [6]): 5/5
- Survival in days (Mean ± S.E.) (L1210 leukemia [2]; [6]): > 45 days
- Cured (mice surviving beyond day 45) (L1210 leukemia [2]; [7]): 0/5
- Survival in days (Mean ± S.E.) (L1210 leukemia [2]; [7]): 16.0 ± 4.0 days
- Cured (mice surviving beyond day 45) (L1210 leukemia [2]; [8]): 5/5
- Survival in days (Mean ± S.E.) (L1210 leukemia [2]; [8]): > 45 days
- Curative effect against L1210 leukemia in vivo (L1210 leukemia [2]; at 20 and 40 mg/Kg/day): effective in providing a curative effect
- Liver Metastasis % Inhibition ([3]; days 1-5, 5 mg/Kg): 87%
- Liver Metastasis No. foci ± S.E. ([3]; days 1-5, 5 mg/Kg): 29.2 ± 7.7 foci
- Liver Metastasis % Inhibition ([3]; days 3-8, 5 mg/Kg): 72%
- Liver Metastasis No. foci ± S.E. ([3]; days 3-8, 5 mg/Kg): 62.3 ± 17.5 foci
- Lung Metastasis % Inhibition ([4]; days 1-5, 10 mg/Kg, i.p., day 18): 100%
- Lung Metastasis No. foci ± S.E. ([4]; days 1-5, 10 mg/Kg, i.p., day 18, n = 6, control 21.3 ± 11.5): 0 foci
- antimetastatic effect in inhibiting lung metastasis ([4]; results as presented in Table 4): antimetastatic effect

Compound: CNCC(C)CNCCCCCCCNCC(C)CNC (centres unmarked) [Compound 28600, N,N'-bis[3-(methylamino)-2-(methyl)propyl]-1,7-diaminoheptane]
- response vs control in vivo at 10 mg/kg (L1210 leukemia [1]; days 1-5): 132%

Compound: CCNCCCNCCCCCCCCNCCCNCC [Compound 27393, N,N'-Bis(3-(ethylamino)propyl)-1,8-octanediamine tetrahydrochloride]
- response vs control in vivo at 10 mg/kg (L1210 leukemia [1]; days 1-9): 112%

Compound: NCCCNCCCCCCCCNCCCN [Compound 26547, N,N'-bis[3-(amino)propyl]-1,8-diaminooctane]
- response vs control in vivo at 10 mg/kg (L1210 leukemia [1]; days 1-9): 171%
- % T/C (L1210 leukemia [5]; J. Med. Chem. 33, 1369 (1990)): 350%
- Cured (L1210 leukemia [5]; J. Med. Chem. 33, 1369 (1990)): 0/6
- Cured (L1210 leukemia [5]; J. Med. Chem. 33, 1369 (1990), listed as N,N'-bis[3-(amino)propyl]-1,8-diaminooctane): no cures
- Delayed toxicity (L1210 leukemia [5]): exhibited delayed toxicity

Compound: CNCCCNCCCCCCCCNCCCNC [Compound 27259, N,N'-Bis(3-(methylamino)propyl)-1,8-octanediamine tetrahydrochloride]
- response vs control in vivo at 10 mg/kg (L1210 leukemia [1]; days 1-9): 172%

Compound: CNC(C)CCNCCCCCCCNCCC(C)NC (centres unmarked) [Compound 101060, N,N'-Bis[3-(methylamino)butyl]-1,7-diaminoheptane tetrahydrochloride]
- response vs control in vivo at 10 mg/kg (L1210 leukemia [1]; days 1-5): 180%

Compound: CC(N)CCNCCCCCCCNCCC(C)N (centres unmarked) [Compound 28516, N,N'-bis[3-(amino)butyl]-1,7-diaminoheptane, reference compound]
- response vs control in vivo at 10 mg/kg (L1210 leukemia [1]; days 1-5): 200%
